Reference: patent US4427659A, “Muramyl peptide substituted on a peptide nitrogen and medicaments containing the same” (Agence Nationale de Valorisation de la Recherche (ANVAR), priority 1979, dated 1984)

Assays:
[1] = test system: bovine serum albumin (BSA); assay: Adjuvant character in the aqueous phase: anti-body level by passive hemagglutination after BSA with the substance; format: in vivo; conditions: Swiss mice, SC; for Log2 hemagglutinating titer, Secondary response D 36: 0.5 mg BSA with 0.1 mg substance, booster 0.1 mg BSA thirty days later, six days after booster; for Log2 hemagglutinating titer, Primary response D 28: 0.5 mg BSA with 0.1 mg substance in isotonic saline, before booster
Protocol: Groups of 8 Swiss mice aged two months receive, by sub-cutaneous injection (SC), 0.5 mg of antigen constituted by bovine serum albumin (BSA) with (0.1 mg) or without the substance under test in an isotonic saline solution. This high dose of antigen, because it is situated at the limit of the paralysing dose with respect to the immune response, results, through this fact, in a weak or nul response to the antigen alone in the controls; it constitutes therefore a severe criterion to establish the activity of an adjuvant substance. Thirty days later, the mice receive, by the same route of administration, a booster containing 0.1 mg of the same antigen.
The anti-body level is determined, before and six days after the booster, by passive hemagglutination using sheep's red blood cells treated with formalin and covered with the antigen under study according to the method described by A. A. HIRATA and M. W. BRANDISS (J. Immunol., 100, 641-648, 1968).
The anty-body titer, represented by the maximum serum dilution agglutinating a given amount of sheep's red blood cells reaches a maximum at the 36th day following the first injection and is estblished in the following manner.

Ovalbumin = assay: Adjuvant character in emulsion (FIA): delayed hypersensitivity and specific anti-bodies to ovalbumin; format: in vivo, Hartley males; conditions: 100 μg where printed, no dose given for the methyl ester; for φ mm induration after 48 h: delayed hypersensitivity to 0.025 mg ovalbumin intradermal, 18 days after immunisation with 1 mg ovalbumin in FIA emulsion; for antibodies Log2 μg/ml: serum 21 days after injection, nitrogen precipitatable by ovalbumin, 1 mg ovalbumin in FIA emulsion
Protocol: The tests were carried out on batches of 6 Hartley males of 350 g. The administration was done by intradermal injection into the plantar pad of each of the rear paws. Ovalbumin (constituting the antigen) in the proportion of 1 mg is prepared in 0.1 ml of an emulsion of saline isotonic solution, in an oily phase constituted by the Freund incomplete adjuvant (FIA).
Eighteen days after this immunisation, possible delayed hypersensitivity reactions (HSR) to the antigen were sought by injecting by the intradermal route 0.025 mg of ovalbumin in the side of the animals, […] The diameter in millimiters of the reaction so-caused was measured.
Twenty one days after the injection, the animals were bled. In the serum collected, the contents of specific anti-bodies of the ovalbumin was measured by precipitation of the antibody-antigen complex in the equivalent zone. The amount of protein nitrogen contained in this precipitate was devaluated by the Folin method. The mean values of the contents of antibodies are indicated in the Table of results by the logarithm to base 2. These values express the amount, in micrograms of nitrogen precipitatable by the antigen, per millimiter of serum.

rabbit = conditions: in vivo
Description: In addition, the eventuality of a pyrogenic effect in the rabbit was sought, by following the protocol of the European Pharmacopoea, Vol. 2, 1971, pages 58-60.

pyrogenic character (rabbit) | Molecule | Log2 hemagglutinating titer, Secondary response D 36 [1] | φ mm induration after 48 h (Ovalbumin) | antibodies Log2 μg/ml (Ovalbumin) | Log2 hemagglutinating titer, Primary response D 28 [1]
absence of a pyrogenic character | N-acetyl-muramyl-N-methyl-L-alanyl-D-glutamine-methyl-ester [MDP-(N--methyl-Ala)--OCH3] | 5.11 | 5 ± 2 mm | 10.11 ± 0.6 Log2 μg/ml | –
absence of a pyrogenic character | N-acetyl-muramyl-N-methyl-L-alanyl-D-isoglutamine [MDP-(N--methyl-Ala)] | 9.27 ± 1.19 | 14 ± 0.8 mm | 12.51 ± 0.88 Log2 μg/ml | 4.64
– | CC(=O)N[C@@H]1[C@@H](O[C@H](C)C(=O)N[C@@H](C)C(=O)N[C@H](CCC(=O)O)C(N)=O)[C@H](O)[C@@H](CO)O[C@H]1O [MDP, reference compound] | 8.34 ± 1.34 | 11.5 ± 2.5 mm | 12.31 ± 1.01 Log2 μg/ml | 3.64
